Assay results taken from patent publication US9198894B2, “Uses of 15-benzylidene-14-deoxy-11,12-didehydroandrographolide derivatives in the preparation of antineoplastic drugs” (Zhengzhou University, priority 2010, dated 2015).
pIC50: −log10 of the molar value. Where two headings read alike, the source gives them in different places. Marks after values point to notes of the source that are not given here.

Columns and labels:
[1] = test system: A549 human lung adenocarcinoma; assay: Colony formation assay, A549; format: cell-based; settings: for pIC50: read-out: Inhibition against tumor cell colony formation IC50
Protocol: (§1) 1) Cell lines: Cell lines of SGC-7901 human gastric cancer, A549 human lung adenocarcinoma and Hela human cervical carcinoma were purchased from the Type Culture Collection of the Chinese Academy of Sciences, Shanghai, China.
(§2) 3) Method: Colony formation assay was used. The cells were trypsinized to generate a single-cell suspension and seeded in a 6-well plate at a density of 100 cells/well, then drug-containing medium was added to the well to make the final concentration of compound to 0, 1.25, 2.50, 5.00, 7.50, 10.00 μmol/L, respectively. The experiments were performed in duplicate, and the cells were cultured at 37 in a humidified atmosphere with 5% CO2. Terminate cell culture when the clones can be seen in the culture plate, then remove the culture medium, and wash twice with PBS, fix the cells with methanol (5 ml/well) for 15 min and stain the cells with hematoxylin-eosin stain. The number of clones which comprised more than 50 cells was counted under a TS100-F-PH microscope (Nikon Company, Japan). Calculate relative colony formation ratio (%) and the IC50 values. Relative colony formation ratio (%)=(colony number of drug-administration well/colony number of control well)×100%.

[2] = test system: Hela human cervical carcinoma; assay: Colony formation assay, Hela; format: cell-based; settings: for pIC50: read-out: Inhibition against tumor cell colony formation IC50
Protocol: as §1, §2

[3] = test system: SGC-7901 human gastric cancer; assay: Colony formation assay, SGC-7901; format: cell-based; settings: for pIC50: read-out: Inhibition against tumor cell colony formation IC50
Protocol: as §1, §2

[4] = test system: 5637 human urinary bladder cancer cells; assay: Wound healing (two-dimensional migration) assay, 5637; format: cell-based; settings: 5637, 10.00 μmol/l, 24 h (FIG. 1C)
Protocol: (§3) 1) Cell lines: Cell lines of 5637 human bladder carcinoma, Eca-109 human esophageal carcinoma, HT29 human colon cancer, SGC-7901 human gastric cancer, A549 human lung adenocarcinoma and PC-3 human prostate carcinoma were purchased from the Type Culture Collection of the Chinese Academy of Sciences, Shanghai, China.
(§4) 3) Methods: The cells were trypsinized to generate a single-cell suspension and seeded in 96-well plates (200 μl/well), and incubated with medium containing 10% fetal bovine serum at 37 in a humidified atmosphere with 5% CO2. Following a 24 h incubation, the cells were starved for an additional 12 h in low-serum media (1% FBS). The cultures of Eca-109, HT29, 5637, SGC-7901, A549 and PC-3 were then scratched away with a 200-μl plastic pipette tip and rinsed twice with PBS to remove wound-derived loose and dislodged cells. The cells were cultured in replaced medium without or with compounds at final concentrations of 0, 2.50, 5.00 and 10.00 μmol/L, respectively. At least seven randomly selected views along the scraped line in each well were photographed immediately and 24 h and 36 h after incubation using a digital camera at 50× magnification. The average scraped area in each well under each treatment condition was measured, and the percentage of inhibition against cell migration was calculated. % of inhibition=1−(A0−At)/(A′0−A′t)×100%, where, A0 and At are the areas of wound with compound treatment measured immediately and 24 or 36 h post-injury, respectively; A′0 and A′t are the areas of wound without compound treatment measured immediately and 24 or 36 h post-injury, respectively.

[5] = test system: A549 human lung carcinoma cells; assay: Wound healing (two-dimensional migration) assay, A549; format: cell-based; settings: A549, 10.00 μmol/l, 36 h (FIG. 1E)
Protocol: as §3, §4

Murine hepatoma H22 = assay: Anti-tumor and anti-angiogenesis effects on H22 tumor-bearing mice; format: in vivo, mouse; settings: H22 mice, 1.35 mmol/kg ig once a day 7 d
From the text: 1) Animals: Kunming mice of clean grade, half male and half female, body weight 20±2 g, were purchased from the experimental animal center of Henan Province, China. Qualified Certificate number: SCXK (Yu) 2005-0001.
2) Cells: Murine hepatoma H22 cells were presently obtained from Henan Academy of Medical and Pharmaceutical Sciences (Zhengzhou, China).
Cyclophosphamide (Cyc) was produced by Tianjin Jingshi Pharmaceutical Co., Ltd., China (approval number of medicine: H12021006). Gelatin and carmine red were supplied by Sigma Chemical (St. Louis, Mo., U.S.A). All other chemicals and reagents were of the highest commercial grade available. All drugs were prepared with normal saline emulsified with Tween-80 (0.1% v/v) and dispersed in carboxymethylcellulose (0.5% v/v). 10% (W/V) carmine solution was prepared with salt solution containing 5% (W/V) gelatin which should be used immediately after preparation. The rest of medicines and reagents and the methods for preparation were the same with that of EXAMPLE 1.
4) Method: The H22 cells after in vivo passage for 7 d were diluted with physiological saline to adjust to a concentration of 1×10^7/mL, injected to the armpit of right forelimb of mice subcutaneously (0.2 ml/mouse), then mice were divided into 10 groups (n=12; 6 male and 6 female per group) randomly. 24 h later each group of mice was administrated intragastrically (ig; 0.2 ml/10 g) once a day continuously for 7 d with vehicle (tumor control group and control group), Cyc (standard control), or compounds at the tested doses. After the last drug administration and a following fasting of 8 h, each mouse was anesthetized with 1% pentobarbital in normal saline solution (80 mg/kg; ip). Mice of control group were injected with 5% gelatin in normal saline solution (40) via the tail vein (1 ml/mouse); whereas mice of other groups were injected replaced by 10% carmine red and 5% gelatin in normal saline solution (40). Mice were killed, then freezed in a refrigerator at −20 for 2 h to solidify. Tumors were segregated, weighed and homogenized with 3 M NaOH solution (10 ml/g tumor). The homogenate supernatant was prepared by being centrifuged for 20 min at 14000 rpm, and the absorbance at 490 nm was assayed using a PowerWaveX Microplate Scanning Spectrophotometer (Bio-tek Instruments, Inc). The carmine red content was calculated based on the standard curve. The vascular index (VI) expressed as milligram of carmine red per gram of tumor tissue. The inhibition ratio (IR) of tumor growth was calculated using the formula: IR (%)=[(Wc−Wt)/Wc]×100%, where Wc is the average tumor weight of the control group, and Wt is that of the drug treatment group. Data were expressed as mean±SD and statistical analysis was performed by SPSS Statistics 17.0 using a one-way analysis of variance (ANOVA) followed by unpaired t-test. A value of P<0.05 was considered statistically significant.

S180 murine sarcoma = assay: Growth, invasion and metastasis of S180 sarcoma in tumor-bearing mice; format: in vivo, mouse
Protocol: 1) Animals: Be the same with that of EXAMPLE 4.
2) Cells: The S180 murine sarcoma cells were obtained from Henan Academy of Medical and Pharmaceutical Sciences (Zhengzhou, China).
4) Method: Mice were randomly divided into 10 groups (n=12). The S180 cells after in vivo passage for 7 d were diluted with physiological saline to adjust to a concentration of 1×10^7/mL. The inoculation of tumor cells was conducted in two batches, those of tumor control group I and groups treated with compounds 1 or 3 were in batch 1, those of tumor control group II, Cyc group and the compound 2 groups were in batch 2. The mice were injected with S180 cells (0.2 ml/mouse) into the armpit of right forelimb subcutaneously, and 24 h later each group of mice was administrated intragastrically (ig; 0.2 ml/10 g) once a day continuously for 9 d with vehicle (tumor control group), Cyc (standard control), or compounds at the tested doses. On day 10, kill the mice, observe and record the degree of invasion and metastasis of tumor tissues, then the tumor tissues were segregated and weighed. The inhibition ratio (IR) of tumor growth was calculated by the following formula: IR (%)=[(Wc−Wt)/Wc]×100%, where Wc is the average tumor weight of the control group, and Wt is that of the treatment group. Data were expressed as mean±SD and statistical analysis was performed by SPSS Statistics 17.0 using a one-way analysis of variance (ANOVA) followed by unpaired t-test. A value of P<0.05 was considered statistically significant.

[6] = test system: Eca-109 human esophageal carcinoma cells; assay: Wound healing (two-dimensional migration) assay, Eca-109; format: cell-based; settings: Eca-109, 10.00 μmol/l, 24 h (FIG. 1A)
Protocol: as §3, §4

Row | SMILES | Inhibitory effect on two-dimensional migration [4] | Inhibitory effect on two-dimensional migration [5] | Inhibition of colony formation compared with andrographolide [1] | pIC50 [1] | Inhibition of colony formation compared with andrographolide ([2]; Hela) | pIC50 ([2]; Hela) | Inhibition of colony formation compared with andrographolide [3] | pIC50 [3] | Inhibitory effect on two-dimensional migration [6] | other results
1 | C=C1CC[C@@H]2[C@](C)(CO)[C@H](O)CC[C@@]2(C)[C@@H]1C/C=C1/C(=O)OC[C@H]1O [Compound 1, Andrographolide] | stronger inhibition | stronger inhibition | – | – | – | – | – | – | – | pIC50 ([1]; Homo sapiens): 4.95; pIC50 ([2]; Homo sapiens, HeLa): 5.54; pIC50 ([3]; Homo sapiens): 4.72; IR (%) of tumor growth (Murine hepatoma H22): 31.70* %; Carmine contents (Murine hepatoma H22; mean ± s): 4.66 ± 2.58; VI (vascular index, mg carmine red per g tumor tissue) (Murine hepatoma H22; mean ± s): 5.10 ± 2.13 mg/g; IR (%) of S180 sarcoma growth (S180 murine sarcoma; 1.35 mmol/kg ig once a day 9 d): 17.18 ± 3.21 %; Average invasion and metastasis grade (S180 murine sarcoma; S180, grades 0-4, 1.35 mmol/kg): 0.67; Mouse Number Grade 0 (S180 murine sarcoma; S180 invasion, Grade 0: no invasion, 1.35 mmol/kg): 6; Mouse Number Grade 1 (S180 murine sarcoma; S180 invasion, Grade 1: invasion to right forelimb, 1.35 mmol/kg): 4; Mouse Number Grade 2 (S180 murine sarcoma; S180 invasion, Grade 2: right forelimb and the left side of body, 1.35 mmol/kg): 2; Mouse Number Grade 3 (S180 murine sarcoma; S180 invasion, Grade 3: also the ribs and muscles in chest, 1.35 mmol/kg): 0; Mouse Number Grade 4 (S180 murine sarcoma; S180 invasion, Grade 4: invasion into chest or abdominal cavity, 1.35 mmol/kg): 0
2 | C=C1CCC2C(C)(CO)C(O)CCC2(C)C1C=CC1=CC(=Cc2ccc(Br)cc2)OC1=O (stereo not drawn) [Compound 6] | – | – | remarkably stronger than that of andrographolide | 5.78 | remarkably stronger than that of andrographolide | 5.70 | remarkably stronger than that of andrographolide | 5.58 | – | –
3 | C=C1CCC2C(C)(COC(=O)CCC(=O)O)C(OC(=O)CCC(=O)O)CCC2(C)C1C=CC1=CC(=Cc2ccc(Cl)cc2)OC1=O (stereo not drawn) [Compound 8] | – | much stronger than that of other tumor cells | – | – | – | – | – | – | much stronger than that of other tumor cells | –
4 | C=C1CCC2C(C)(CO)C(O)CCC2(C)C1C=CC1=CC(=Cc2ccc(OC)cc2)OC1=O (stereo not drawn) [Compound 7] | stronger inhibition | stronger inhibition | remarkably stronger than that of andrographolide | 5.48 | remarkably stronger than that of andrographolide | 5.62 | remarkably stronger than that of andrographolide | 5.61 | – | –
5 | C=C1CCC2C(C)(CO)C(O)CCC2(C)C1C=CC1=CC(=Cc2ccc(F)cc2)OC1=O (stereo not drawn) [Compound 5] | – | much stronger than that of other tumor cells | remarkably stronger than that of andrographolide | 5.64 | remarkably stronger than that of andrographolide | 5.83 | remarkably stronger than that of andrographolide | 5.68 | much stronger than that of other tumor cells | –
